According to ChEMBL document CHEMBL1201862, “PubChem BioAssay data set” (2004):
The source made the active and inactive calls.

Tests used:
[1] = molecular target: T1, Short transient receptor potential channel 4 (Mus musculus, UniProt Q9QUQ5); test: mouse TRPC4 channel activators, dose response, cell-based, HEK293 TRPC4/mu-opioid, Fluo-4 calcium (AID 434937); type: functional
T1 sequence (Q9QUQ5 whole entry): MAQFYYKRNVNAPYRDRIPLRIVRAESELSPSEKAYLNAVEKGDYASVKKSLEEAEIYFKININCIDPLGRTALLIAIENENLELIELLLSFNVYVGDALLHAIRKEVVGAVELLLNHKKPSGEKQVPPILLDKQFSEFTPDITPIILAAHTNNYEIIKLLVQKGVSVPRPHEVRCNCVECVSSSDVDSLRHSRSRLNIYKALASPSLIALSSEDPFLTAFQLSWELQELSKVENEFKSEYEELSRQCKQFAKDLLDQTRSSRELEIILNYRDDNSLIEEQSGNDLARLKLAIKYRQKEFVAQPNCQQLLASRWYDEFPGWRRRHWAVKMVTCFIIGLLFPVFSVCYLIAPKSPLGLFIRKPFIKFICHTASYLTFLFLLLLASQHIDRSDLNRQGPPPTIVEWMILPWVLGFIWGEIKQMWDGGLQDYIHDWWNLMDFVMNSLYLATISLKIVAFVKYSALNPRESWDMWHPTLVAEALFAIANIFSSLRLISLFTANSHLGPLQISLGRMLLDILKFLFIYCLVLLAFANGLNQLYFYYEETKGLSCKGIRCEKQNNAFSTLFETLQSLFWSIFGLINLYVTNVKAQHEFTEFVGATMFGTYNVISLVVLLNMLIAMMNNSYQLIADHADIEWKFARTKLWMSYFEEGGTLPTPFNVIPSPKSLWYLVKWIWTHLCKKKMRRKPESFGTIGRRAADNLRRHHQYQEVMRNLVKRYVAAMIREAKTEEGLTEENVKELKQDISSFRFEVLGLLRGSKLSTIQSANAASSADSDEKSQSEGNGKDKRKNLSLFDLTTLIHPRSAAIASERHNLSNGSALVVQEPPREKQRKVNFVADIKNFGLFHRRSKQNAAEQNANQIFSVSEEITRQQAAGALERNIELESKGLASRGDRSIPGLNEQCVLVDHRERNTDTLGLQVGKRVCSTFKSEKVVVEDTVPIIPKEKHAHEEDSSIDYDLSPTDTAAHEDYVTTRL

Aminopeptidase N = molecular target: T2, Aminopeptidase N (Plasmodium falciparum FcB1/Columbia, UniProt O96935); test: P. falciparum M1AAP inhibitors, biochemical, fluorogenic H-Leu-NHMec substrate, 1536-well (AID 1445); parameters: species or system Plasmodium falciparum 3D7, 3D7
T2 sequence (O96935 whole entry): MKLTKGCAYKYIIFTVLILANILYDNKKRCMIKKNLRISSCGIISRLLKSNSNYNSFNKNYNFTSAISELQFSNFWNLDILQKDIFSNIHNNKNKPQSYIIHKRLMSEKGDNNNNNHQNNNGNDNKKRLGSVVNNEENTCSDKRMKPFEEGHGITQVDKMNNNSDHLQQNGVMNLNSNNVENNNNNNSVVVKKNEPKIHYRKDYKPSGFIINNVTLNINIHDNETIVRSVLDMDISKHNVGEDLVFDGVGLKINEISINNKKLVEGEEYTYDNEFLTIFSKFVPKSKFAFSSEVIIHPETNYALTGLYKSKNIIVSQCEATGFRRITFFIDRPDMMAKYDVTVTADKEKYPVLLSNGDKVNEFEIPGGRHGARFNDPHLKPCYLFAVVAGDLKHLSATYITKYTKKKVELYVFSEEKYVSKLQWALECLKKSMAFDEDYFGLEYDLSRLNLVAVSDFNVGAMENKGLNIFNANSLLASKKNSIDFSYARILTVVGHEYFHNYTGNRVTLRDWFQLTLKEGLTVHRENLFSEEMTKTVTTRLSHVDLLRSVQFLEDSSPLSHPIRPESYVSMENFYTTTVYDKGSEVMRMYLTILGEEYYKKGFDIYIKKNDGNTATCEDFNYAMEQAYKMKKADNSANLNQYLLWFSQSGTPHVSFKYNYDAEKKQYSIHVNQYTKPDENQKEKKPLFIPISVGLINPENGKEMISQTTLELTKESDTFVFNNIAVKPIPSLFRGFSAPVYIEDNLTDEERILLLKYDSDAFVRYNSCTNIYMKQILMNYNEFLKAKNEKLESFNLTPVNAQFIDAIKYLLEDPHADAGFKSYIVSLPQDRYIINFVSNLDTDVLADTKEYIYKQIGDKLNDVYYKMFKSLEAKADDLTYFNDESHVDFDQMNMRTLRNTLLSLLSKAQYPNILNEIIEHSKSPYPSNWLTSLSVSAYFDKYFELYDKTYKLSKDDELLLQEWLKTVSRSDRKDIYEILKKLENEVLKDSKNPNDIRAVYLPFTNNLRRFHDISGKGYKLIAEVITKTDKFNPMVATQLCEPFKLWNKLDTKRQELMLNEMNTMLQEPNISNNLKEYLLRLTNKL

[2] = growth suppression of PTEN-null colon cells, dose response, cell-based, HCT116 PTEN knockout (AID 1047); type: functional;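 note: HCT116 colon tumor cells with PTEN knocked out; cells exposed to compound for 60 hours before readout; potency for loss of cell viability measured by luminescence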
[3] = growth suppression of beta-catenin-knockout colon cells, dose response, cell-based, HCT116, human colon tumor (AID 1045); type: functional;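 note: HCT116 colon tumor cells with beta catenin knocked out; cells exposed to compound for 60 hours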
[4] = molecular target: T3, Zinc finger protein mex-5 (Caenorhabditis elegans, UniProt Q9XUB2); test: MEX-5/TCR-2 RNA interaction inhibitors, dose response, biochemical, C. elegans, fluorescence polarization (AID 1960)
T3 sequence (Q9XUB2 whole entry): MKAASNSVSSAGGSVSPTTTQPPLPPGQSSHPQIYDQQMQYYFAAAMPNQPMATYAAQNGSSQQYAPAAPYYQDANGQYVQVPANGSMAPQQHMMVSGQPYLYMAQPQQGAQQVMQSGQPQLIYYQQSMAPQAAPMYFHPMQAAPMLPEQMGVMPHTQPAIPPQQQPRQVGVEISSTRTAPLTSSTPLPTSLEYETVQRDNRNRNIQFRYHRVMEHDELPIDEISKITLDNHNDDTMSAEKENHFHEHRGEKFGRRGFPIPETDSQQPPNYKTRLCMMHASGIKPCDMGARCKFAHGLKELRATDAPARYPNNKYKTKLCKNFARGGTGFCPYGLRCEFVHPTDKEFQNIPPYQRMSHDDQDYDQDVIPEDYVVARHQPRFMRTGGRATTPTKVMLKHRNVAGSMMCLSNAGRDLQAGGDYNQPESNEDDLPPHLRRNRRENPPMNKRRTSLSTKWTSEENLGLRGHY

[5] = A cytotoxicity screen of small molecule inhibitors of the PhoP region in Salmonella typhi identified in the primary screen. [Related pubchem assays: 1850, 1864, 1985 ]; type: functional
[6] = molecular target: T4, RNA-binding protein pos-1 (Caenorhabditis elegans, UniProt G5EF15); test: inhibitors of POS-1/mex-3 RNA binding, dose response, biochemical, fluorescence polarization (AID 1964);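 note: purified POS-1 fused to maltose binding protein made in E. coli; potency of compounds blocking POS-1 binding to fluorescent RNA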
T4 sequence (G5EF15 whole entry): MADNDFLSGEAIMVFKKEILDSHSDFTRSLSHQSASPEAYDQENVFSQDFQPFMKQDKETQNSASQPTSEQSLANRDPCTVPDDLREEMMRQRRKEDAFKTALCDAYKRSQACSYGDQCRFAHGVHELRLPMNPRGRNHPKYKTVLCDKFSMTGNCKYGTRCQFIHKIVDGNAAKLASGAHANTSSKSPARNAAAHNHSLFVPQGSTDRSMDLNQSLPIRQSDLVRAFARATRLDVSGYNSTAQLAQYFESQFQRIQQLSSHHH

[7] = Luminescence Cell-Based Dose Confirmation HTS to Identify Inhibitors of Platelet Dense Granule Release. [Related pubchem assays: 1663 (Primary HTS), 1678 (Summary of Project)]; type: functional
[8] = molecular target: Luciferin 4-monooxygenase (Photinus pyralis, UniProt P08659); test: firefly luciferase enzyme inhibitors, dose response, biochemical, luminescence (AID 1891)
[9] = molecular target: T5, Polyadenylate-binding protein 1 (Homo sapiens, UniProt P11940); test: PABP1 MLLE–PAM2 interaction inhibitors, dose response, miRNA deadenylation inhibitor project, biochemical, fluorescence polarization, Cy5-PAM2 peptide, secondary (AID 602260); type: functional; conditions: read-out: IC50_Mean
[10] = molecular target: T5, Polyadenylate-binding protein 1; test: PABP1 MLLE–PAM2 binding inhibitor potency, dose response, biochemical, fluorescence polarization, FITC-PAM2 peptide (AID 602259); type: functional; conditions: read-out: IC50_Mean
Cytochrome P450 2C9 = Cytochrome P450 2C9 (Homo sapiens, UniProt P11712)
Cytochrome P450 1A2 = molecular target: T6, Cytochrome P450 1A2 (Homo sapiens, UniProt P05177);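 note: PubChem cytochrome P450 panel assay, CYP1A2 panel member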
T6 sequence (P05177 whole entry): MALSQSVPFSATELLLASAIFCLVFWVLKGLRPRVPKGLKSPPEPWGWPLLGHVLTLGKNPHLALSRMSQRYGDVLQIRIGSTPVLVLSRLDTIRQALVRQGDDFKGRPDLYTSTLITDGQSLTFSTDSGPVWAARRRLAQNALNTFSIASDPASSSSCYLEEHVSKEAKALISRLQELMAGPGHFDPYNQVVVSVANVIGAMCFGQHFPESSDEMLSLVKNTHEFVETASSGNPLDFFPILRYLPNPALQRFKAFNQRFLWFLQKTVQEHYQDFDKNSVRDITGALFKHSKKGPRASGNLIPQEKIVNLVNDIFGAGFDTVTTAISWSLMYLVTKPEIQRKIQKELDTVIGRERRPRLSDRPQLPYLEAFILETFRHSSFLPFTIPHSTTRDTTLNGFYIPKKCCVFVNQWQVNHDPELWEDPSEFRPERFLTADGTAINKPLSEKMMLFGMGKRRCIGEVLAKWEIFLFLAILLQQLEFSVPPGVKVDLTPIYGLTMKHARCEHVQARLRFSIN

[11] = inhibitors of intracellular T. cruzi replication, confirmation, NIH3T3 host cells, beta-gal luminescence (AID 2044); type: functional, cell-based;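 note: intracellular parasites grown in NIH/3T3 mouse fibroblasts as host cells; luminescent beta-galactosidase reporter signal from transgenic T. cruzi replicating inside host cells; inhibitors lower the luminescence signal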
[12] = cytotoxicity toward NIH3T3 fibroblasts, dose response, counter-screen, cell-based, ATP luminescence, mouse fibroblasts (AID 2010); type: functional;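 note: cells exposed to compound for about 90 hours before reading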
[13] = HEp-2 cell cytotoxicity, dose response, cytotoxicity control for RSV inhibitor project, HTS (AID 2410); type: functional; conditions: human respiratory syncytial virus
[14] = Luminescence Cell-Based Dose Retest to Confirm Inhibitors of Cancer Stem Cells. [Related pubchem assays (depositor defined):AID2717, AID2721]; type: functional, Homo sapiens; conditions: Homo sapiens
[15] = microbe, parasite or virus in culture; type: functional; conditions: Mycobacterium tuberculosis
Cytochrome P450 2D6 = Cytochrome P450 2D6 (Homo sapiens, UniProt P10635);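 note: CYP2D6 member of a cytochrome P450 panel assay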
Cytochrome P450 2C19 = Cytochrome P450 2C19 (Homo sapiens, UniProt P33261); test: Cytochrome panel assay with activity outcomes. Panel member name: p450-cyp2c19 Compounds with AC50 equal or less than 10 uM are considered active; type: functional; conditions: read-out: AC50
Sequence of Cytochrome P450 2C19 (P33261 whole entry): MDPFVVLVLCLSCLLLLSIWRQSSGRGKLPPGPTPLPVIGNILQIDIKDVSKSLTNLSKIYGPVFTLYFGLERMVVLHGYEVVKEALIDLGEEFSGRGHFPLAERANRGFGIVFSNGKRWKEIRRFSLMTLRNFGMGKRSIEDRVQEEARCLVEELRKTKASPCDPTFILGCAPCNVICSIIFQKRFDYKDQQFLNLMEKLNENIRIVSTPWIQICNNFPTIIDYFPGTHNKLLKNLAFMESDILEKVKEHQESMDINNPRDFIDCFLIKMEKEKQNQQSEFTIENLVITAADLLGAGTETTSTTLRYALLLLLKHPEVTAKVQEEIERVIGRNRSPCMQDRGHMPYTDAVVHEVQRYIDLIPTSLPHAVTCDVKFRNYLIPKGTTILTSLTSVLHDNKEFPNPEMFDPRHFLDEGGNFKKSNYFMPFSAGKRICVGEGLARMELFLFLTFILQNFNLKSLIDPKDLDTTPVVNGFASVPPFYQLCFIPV

Sequence of Cytochrome P450 2C9 (P11712 whole entry): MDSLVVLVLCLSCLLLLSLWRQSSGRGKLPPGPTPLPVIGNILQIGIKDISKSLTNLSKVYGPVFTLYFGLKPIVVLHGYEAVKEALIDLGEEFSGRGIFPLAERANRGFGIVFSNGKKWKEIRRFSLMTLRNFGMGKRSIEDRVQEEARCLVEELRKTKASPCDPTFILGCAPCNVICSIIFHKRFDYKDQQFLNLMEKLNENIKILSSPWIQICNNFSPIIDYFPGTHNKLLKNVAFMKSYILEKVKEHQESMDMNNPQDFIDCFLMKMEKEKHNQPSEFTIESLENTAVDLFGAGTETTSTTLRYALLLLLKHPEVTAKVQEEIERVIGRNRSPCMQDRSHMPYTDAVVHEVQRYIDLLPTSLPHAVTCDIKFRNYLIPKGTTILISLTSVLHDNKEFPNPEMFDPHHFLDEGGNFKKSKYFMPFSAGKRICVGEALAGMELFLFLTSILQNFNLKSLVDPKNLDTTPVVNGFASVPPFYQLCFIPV
T5 sequence (P11940 whole entry): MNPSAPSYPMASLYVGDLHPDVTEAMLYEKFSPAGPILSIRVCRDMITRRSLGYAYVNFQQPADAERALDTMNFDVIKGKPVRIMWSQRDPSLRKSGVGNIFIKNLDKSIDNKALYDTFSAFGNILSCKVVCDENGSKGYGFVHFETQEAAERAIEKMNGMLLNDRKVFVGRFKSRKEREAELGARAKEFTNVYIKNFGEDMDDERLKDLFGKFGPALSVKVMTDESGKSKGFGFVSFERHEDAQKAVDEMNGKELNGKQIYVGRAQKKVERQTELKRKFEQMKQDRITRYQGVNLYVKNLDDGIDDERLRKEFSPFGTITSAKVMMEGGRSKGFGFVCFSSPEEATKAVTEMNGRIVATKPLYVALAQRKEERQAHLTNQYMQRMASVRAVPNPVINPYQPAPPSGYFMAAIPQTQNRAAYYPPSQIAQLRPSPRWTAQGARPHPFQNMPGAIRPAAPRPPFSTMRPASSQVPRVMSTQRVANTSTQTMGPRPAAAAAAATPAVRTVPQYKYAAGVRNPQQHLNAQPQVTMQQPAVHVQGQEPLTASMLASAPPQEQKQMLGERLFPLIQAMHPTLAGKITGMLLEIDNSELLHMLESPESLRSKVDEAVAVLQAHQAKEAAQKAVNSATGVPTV
Sequence of Cytochrome P450 2D6 (P10635 whole entry): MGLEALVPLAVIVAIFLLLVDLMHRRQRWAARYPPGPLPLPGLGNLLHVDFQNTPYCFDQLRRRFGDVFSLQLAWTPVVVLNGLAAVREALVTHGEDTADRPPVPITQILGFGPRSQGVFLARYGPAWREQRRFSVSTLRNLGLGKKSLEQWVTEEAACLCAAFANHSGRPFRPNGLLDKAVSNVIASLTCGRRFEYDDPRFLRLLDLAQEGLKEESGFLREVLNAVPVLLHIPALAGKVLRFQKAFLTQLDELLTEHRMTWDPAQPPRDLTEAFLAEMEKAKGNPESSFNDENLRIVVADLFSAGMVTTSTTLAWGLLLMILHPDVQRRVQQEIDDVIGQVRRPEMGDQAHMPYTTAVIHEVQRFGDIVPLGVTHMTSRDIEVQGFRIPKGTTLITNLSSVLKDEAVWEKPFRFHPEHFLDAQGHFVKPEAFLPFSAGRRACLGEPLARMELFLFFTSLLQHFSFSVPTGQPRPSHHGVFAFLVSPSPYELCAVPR
Sequence of Luciferin 4-monooxygenase (P08659 whole entry): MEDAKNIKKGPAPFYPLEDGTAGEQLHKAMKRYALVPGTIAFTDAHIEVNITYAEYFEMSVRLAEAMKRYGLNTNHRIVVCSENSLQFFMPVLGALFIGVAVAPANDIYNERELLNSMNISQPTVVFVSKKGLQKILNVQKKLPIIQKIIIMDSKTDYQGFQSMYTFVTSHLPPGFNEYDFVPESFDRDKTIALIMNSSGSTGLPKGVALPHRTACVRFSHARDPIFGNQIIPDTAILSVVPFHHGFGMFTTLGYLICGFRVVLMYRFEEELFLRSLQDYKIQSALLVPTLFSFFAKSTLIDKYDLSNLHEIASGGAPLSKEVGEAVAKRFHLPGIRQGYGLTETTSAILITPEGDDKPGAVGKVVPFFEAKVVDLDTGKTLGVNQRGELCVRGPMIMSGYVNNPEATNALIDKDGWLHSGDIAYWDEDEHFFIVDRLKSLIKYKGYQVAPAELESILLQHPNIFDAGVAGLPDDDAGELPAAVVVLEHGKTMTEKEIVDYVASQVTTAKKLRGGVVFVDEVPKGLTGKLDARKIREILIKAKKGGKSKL

## COc1ccccc1CCC(=O)Nc1cc(S(=O)(=O)N2CCCCC2)ccc1N1CCN(C)CC1
[1]
  EC50: 0.944 µM (active)

## CS(=O)(=O)N1CCC(C(=O)c2cccc(Cl)c2)CC1
Aminopeptidase N
  IC50: 41.1 µM (active)

## Cc1sc2nc(CSc3ccccc3)nc(NCCN(C)C)c2c1C
[1]
  EC50: 2.99 µM (active)

## Cc1ccccc1C(O)(Cc1ccccc1)C1CN2CCC1CC2 (stereo not given)
[2]
  EC50: 14.8 µM (active)
[1]
  EC50: 5.31 µM (active)
[3]
  EC50: 14.5 µM (active)

## Cc1cccc(NC(=O)c2sc3nc(-c4ccccc4)cn3c2C)n1
[4]
  EC50: > 300 µM (not active)
[5]
  EC50: > 50 µM (active)
[6]
  EC50: > 300 µM (not active)

## O=C(/C=C/c1ccc(O)cc1)c1ccccc1 [4-HYDROXYCHALCONE]
[7]
  EC50: < 0.701 µM (active)
[8]
  EC50: < 0.088 µM (active)
[5]
  EC50: > 50 µM (active)

## CCCc1cc(=O)oc2c(CN3CCN(C)CC3)c(O)c(Cl)cc12
Aminopeptidase N
  IC50: 42 µM (active)

## C=CCOc1ccc(/C=C2\C(=N)N3N=C(S(=O)(=O)CC)SC3=NC2=O)cc1OC
Aminopeptidase N
  IC50: 24.5 µM (active)

## NC(=O)SCC(=O)Nc1ccc(Cl)c(Cl)c1
[2]
  EC50: 50.8 µM (active)
[9]
  IC50: > 66 µM (inactive)
[5]
  EC50: > 50 µM (active)
[3]
  EC50: 31 µM (active)
[10]
  IC50: > 66 µM (inactive)

## COc1ccc(OC)c(S(=O)(=O)N2CCC(C(=O)NCCc3ccc(OC)c(OC)c3)CC2)c1
[5]
  EC50: > 50 µM (active)

## CN(C)C(=O)c1ccc(-c2nc(NC3CCNCC3)c3ccccc3n2)cc1
Cytochrome P450 2C9
  AC50: inconclusive
Cytochrome P450 1A2
  AC50: 20 µM (inconclusive)

## CCC(Sc1nc2cc[nH]cc-2n1)C(=O)Nc1ccc(C)c(Cl)c1 (stereo not given)
[11]
  EC50: 2.06 µM (active)
[5]
  EC50: > 50 µM (active)
[12]
  EC50: > 60 µM (not active)

## CCn1c(C)c(C)c2cc(C(=O)Nc3cccc(Cl)c3)ccc21
[13]
  CC50: 30.4 µM (active)
[14]
  AC50: 3.56 µM (active)
[15]
  CC50: > 40 µM (active)
Cytochrome P450 2C9
  AC50: inconclusive

## Nc1ccn([C@@H]2CC[C@H](CO)O2)c(=O)n1
Cytochrome P450 2C9
  AC50: inconclusive

## CCCC(c1nnnn1Cc1ccc(OC)cc1)N1CCN(c2ccccc2OC)CC1 (stereo not given)
[5]
  EC50: > 50 µM (active)

## O=C(CCCN1C(=O)c2cccc3cccc(c23)C1=O)N1CCc2ccccc2C1
Cytochrome P450 2D6
  AC50: 22.4 µM (inconclusive)
Cytochrome P450 2C9
  AC50: inconclusive

## CN1CCN(c2ncc3nc(-c4cn(C)c5ccccc45)c(=O)n(C[C@H]4CCCO4)c3n2)CC1
Cytochrome P450 2C9
  AC50: inconclusive
Cytochrome P450 1A2
  AC50: 6.31 µM (inconclusive)

## Cc1cccc(C)c1OCC(O)CN (stereo not given)
[1]
  EC50: 4.22 µM (active)

## COCCOC(=O)c1c(C)oc2ccc(NS(=O)(=O)c3cccs3)cc12
Aminopeptidase N
  IC50: 48.5 µM (active)

## CN(CCc1ccccn1)C(=O)CC1C(=O)NCCN1Cc1cccc(F)c1 (stereo not given)
[1]
  EC50: 2.37 µM (active)

## CNc1oc(C)nc1S(=O)(=O)c1ccc(C)cc1
Cytochrome P450 2C19
  AC50: 31.6 µM (inconclusive)
Cytochrome P450 2C9
  AC50: inconclusive
